Measurements as given in patent US11506660B2, “Method and system for determining equilibrium dissociation constant of a reversible binding pair” (priority 2017, dated 2022).
Read-outs that look alike come from different tables or passages of the source.

Columns and labels:
[1] = target: T1, α1-acid glycoprotein (AGP) (Homo sapiens, UniProt P02763); test: LSTDLPF-MS (APCI mass-spectrometry detection) Kd determination, alprenolol/AGP; assay type: binding; conditions: α1-acid glycoprotein (AGP) in buffer, pH 7.5, Kd
T1 construct: Kd; [alprenolol]0=500 nM; 30 mM ammonium acetate p; Kd; other: MS detection
Protocol: The LSTDLPF-MS tandem was then used in Kd determination for a reversible binding pair of alprenolol and α1-acid glycoprotein (AGP).
MS experiments were carried out on a QTRAP 6500+ time-of-flight (Q-TOF) instrument (Sciex, Concord, ON, Canada) with a commercial Turbo V APCI ionization source. The optimal acceleration and focusing conditions were achieved by using 60 V declustering potential at 525° C. and 90 psi gas pressure. The analyses were performed in positive mode and scanned m/z 250 Da for alprenolol. The results were analyzed by using Analyst® QS 2.0 software. The propagation profiles obtained for [alprenolol]0=500 nM and varying [AGP]0 were reproducible (FIGS. 19A-19J). Experimental conditions were: internal capillary diameter=200 μm, capillary length=100 cm, flow rate of LPF=100 μL/min., loop's internal diameter=75 μm, loop's length=22.7 cm, loop's volume=1 μL; EM injection by 5 μL/min for 12 s (plug length=3.2 cm); “pre-separation” plug displacement by 5 μL/min for 12 s (3.2 cm displacement); [AGP]0 ranged from 0 to 1 mM; buffer was 30 mM ammonium acetate buffer at pH 7.5.
In this case, the screening phenomenon was characterized by enhancing signal of alprenolol with growing [AGP]0, (FIG. 16A). […] The method is also characterized by an acceptable reproducibility.

[2] = test system: α1-acid glycoprotein (AGP); conditions: literature, cited from earlier work
BSA [3] = target: T2, BSA (Bos taurus, UniProt P02769); test: LSTDLPF-based Kd determination with fluorescence detection, BSA/fluorescein; assay type: binding, bovine
Protocol: In an experimental implementation of the method, LSTDLPF was carried out with flow conditions inside the capillary tube being as close to LPF as possible. It is known that LPF is distorted at the capillary entrance open to a large-volume reservoir (A. Molki, L. Khezzar, A. Goharzadeh Eur. J. Phys. 2013, 34, 1127-1134).
The system operates in the following manner. A loop 116 is utilized in order to deliver the same amount of sample consistently. […] To complete the filling of the loop, the sample 110 was introduced into the loop at 15 μL/min during 12 s (t1) by using a sample low pressure pump 126, which represents 3 times the volume of the loop (FIG. 8A). The low-pressure pump 126 may be, but is not limited to, a syringe pump or a peristaltic pump. While the loop is being filled as depicted in FIG. 8A, the capillary 108 is conditioned with the mobile phase 118 at high flow rate by using a high-pressure pump 124. This high flow rate corresponds to the flow rate utilized during the propagation and will be noted Qprop afterward.
The injection of the sample is illustrated in FIG. 8B. The positions of both valves 102 and 104 have been switched. In this configuration, the low-pressure pump 128 delivered the mobile phase 112 via the injection loop 116 which contained the sample or equilibrium mixture (EM) 110. […]

BSA [4] = target: T2, BSA; test: LSTDLPF-MS (APCI mass-spectrometry detection) Kd determination, BSA/fluorescein; assay type: binding, bovine
Protocol: In another embodiment, the LSTDLPF setup was coupled with a mass-spectrometry (MS) detector. To facilitate complete dissociation of SM during ionization, an atmospheric pressure chemical ionization (APCI) ionization source was utilized (FIGS. 14A, 16A). The LSTDLPF-MS tandem was first used to study the same BSA/fluorescein binding pair. Experimental conditions were: internal capillary diameter=200 μm, capillary length=100 cm, flow rate of LPF=100 μL/min. loop's internal diameter=75 μm, loop's length=22.7 cm, loop's volume=1 μL, EM injection into the capillary followed by EM displacement from the capillary opening by 5 μL/min for 12 s (EM plug length=3.2 cm); “pre-separation” plug displacement by 5 μL/min for 12 s (3.2 cm displacement); [fluorescein]0=200 nM; and buffer was 30 mM ammonium acetate buffer at pH 7.5. MS experiments were carried out on a QTRAP 6500+ time-of-flight (Q-TOF) instrument (Sciex, Concord, ON, Canada) with a commercial Turbo V APCI ionization source. The optimal acceleration and focusing conditions were achieved by using 60 V declustering potential at 525° C. and 90 psi gas pressure. The analyses were performed in positive mode and scanned m/z 287 Da for fluorescein. The results were analyzed by using Analyst® QS 2.0 software.
The MS signal decreased with increasing [BSA]0 (FIG. 14A), due to the screening effect. The results presented repeatability (see FIGS. 15A-15I). Experimental conditions were: internal capillary diameter=200 μm, capillary length=100 cm, flow rate of LPF=100 μL/min. loop's internal diameter=75 μm, loop's length=22.7 cm, loop's volume=1 μL, EM injection by 5 μL/min for 12 s (plug length=3.2 cm); “pre-separation” plug displacement by 5 μL/min for 12 s (3.2 cm displacement); [fluorescein]0=200 nM; [BSA]0 ranged from 0 to 1 mM; and buffer was 30 mM ammonium acetate buffer at pH 7.5. MS experiments were carried out on a QTRAP 6500+ time-of-flight (Q-TOF) instrument (Sciex, Concord, ON, Canada) with a commercial Turbo V APCI ionization source. […] The results were analyzed by using Analyst® QS 2.0 software

BSA [5] = target: T2, BSA; conditions: known value, Andersson et al. Eur. J. Biochem. 1971; cited from earlier work

T2 sequence (P02769 25-607): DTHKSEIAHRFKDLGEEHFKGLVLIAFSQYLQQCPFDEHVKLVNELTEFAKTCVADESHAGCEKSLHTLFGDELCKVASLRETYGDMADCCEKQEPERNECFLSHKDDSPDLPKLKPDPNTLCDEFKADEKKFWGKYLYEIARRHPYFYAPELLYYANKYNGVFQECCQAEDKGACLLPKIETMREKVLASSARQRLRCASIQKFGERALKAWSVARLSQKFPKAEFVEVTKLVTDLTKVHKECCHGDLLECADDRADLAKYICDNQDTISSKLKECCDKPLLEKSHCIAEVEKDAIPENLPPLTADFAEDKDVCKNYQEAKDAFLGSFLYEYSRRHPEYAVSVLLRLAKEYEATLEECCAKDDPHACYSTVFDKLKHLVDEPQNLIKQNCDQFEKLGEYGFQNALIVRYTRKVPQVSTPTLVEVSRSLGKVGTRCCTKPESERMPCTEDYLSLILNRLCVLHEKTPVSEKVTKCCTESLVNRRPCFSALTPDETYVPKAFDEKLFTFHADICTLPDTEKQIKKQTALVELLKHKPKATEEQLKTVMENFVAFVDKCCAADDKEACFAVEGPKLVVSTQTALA
T1 sequence (P02763 19-201): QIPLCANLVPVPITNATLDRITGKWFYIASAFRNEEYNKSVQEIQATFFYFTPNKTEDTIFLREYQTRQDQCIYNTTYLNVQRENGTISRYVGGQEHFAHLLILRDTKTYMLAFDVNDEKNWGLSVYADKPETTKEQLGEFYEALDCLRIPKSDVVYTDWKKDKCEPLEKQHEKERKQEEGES

Kd (BSA [3]; single experiment, non-linear regression of isotherm with Equation 5, [fluorescein]0=200 nM, 30 mM ammonium acetate pH 7.5, error = SD of regression, read-out: Kd) [µM]	Kd (BSA [3]; triplicate experiment on three different days, error = SD of the three experiments, read-out: global Kd) [µM]	Kd (BSA [4]; after 2-step screening compensation, first experiment (FIG. 14C), [fluorescein]0=200 nM, read-out: Kd) [µM]	Kd (BSA [4]; after screening compensation, reproduced on another day (FIG. 18), read-out: Kd) [µM]	Kd (BSA [4]; weighted average of the two Kd measurements, read-out: weighted average of Kd) [µM]	SMILES	Kd at 500 nM ([1]; after 2-step screening compensation (FIG. 16C), [alprenolol]0=500 nM, 30 mM ammonium acetate pH 7.5) [µM]	Kd at 500 nM ([1]; measurements performed on a different day (FIGS. 20A-20D)) [µM]	Kd ([2]; Bao et al. ChemBioChem 2011) [µM]	Kd ([2]; Imamura et al. Chirality 2002) [µM]	Kd (BSA [5]) [µM]
–	–	–	–	–	C=CCc1ccccc1OCC(O)CNC(C)C (stereo not shown) [alprenolol, Alprenolol]	1.8 ± 0.2	4.1 ± 0.8	2.1 ± 0.3	1.6 ± 0.1	–
23 ± 3	20 ± 2	32 ± 4	24 ± 2	26 ± 2	O=C1OC2(c3ccc(O)cc3Oc3cc(O)ccc32)c2ccccc21 [fluorescein]	–	–	–	–	~30
